Data as given in patent US20090162421A1, “DRUGS AS WELL AS THEIR PRODUCTION AND USE IN THE TREATMENT OF PAIN-ASSOCIATED NEUROPATHIES” (PAZ Arzneimittel-Entwicklungsgesellschaft mbH, priority 2007, published 2009).

Assays:
[1] = test system: spared nerve injury model of peripheral neuropathic pain; experiment: Spared Nerve Injury model (SNI model), treatment day 10 to 21 postoperatively (Example 1); assay type: in vivo, rats; settings: for reduction of allodynia: day 10 to 21 postoperatively
Description: (§1) The Chronic Constriction Injury model (CCI model) [Bennet G J, Xie Y K: A peripheral mononeuropathy in rat that produces disorders of pain sensation like those seen in man. Pain 1988, 33:87-107] and the Spared Nerve Injury model (SNI model) [Decosterd I, Woolf C J: Spared Nerve injury: an animal model of persistent peripheral neuropathic pain. Pain 2000, 87:149-158] were used as animal models that show essential elements of the clinical pain syndromes in the presence of neuropathies. In both models, the animals sustain defined nerve damage by surgical means. The pain behavior of the animals can be used to quantitatively measure the efficacy of substances in pain-associated neuropathies. The investigations were carried out on rats according to the published models. […] The same is not true of most other species of laboratory animals.
(§2) In a first series of experiments, the animals sustained a nerve lesion by surgical means according to the SNI model and according to the CCI model. From day 10 to day 21 postoperatively, groups of 12 animals each received intraperitoneal administrations of the test substances twice daily. In tests according to the SNI model, in each application, 2.5, 4.5 or 9 mg tarenflurbil (referred to as RF2.5, RF4.5, and RF9), 4.5 mg S-flurbiprofen (SF4.5), pure vehicle (vehicle—as control) or 25 mg gabapentin (Gaba25—as reference substance), each per kg of body weight, were administered. The behavioral parameters that are typical of pain-associated neuropathies were measured, namely mechanical allodynia using Frey's aestesiometer, cold allodynia using the acetone test, and cold hyperalgesia using the cold plate at 2° C. In tests according to the CCI model, 4.5 or 9 mg/kg body weight of tarenflurbil (RF4.5 and RF9), 9 mg/kg body weight S-flurbiprofen (SF9) or vehicle (vehicle) were administered per group. As before, mechanical/static allodynia, cold allodynia and cold hyperalgesia were measured using Frey's hair test, the acetone test, and the cold plate at 2° C., respectively.

[2] = parameters: species or system rats; settings: rat, in vivo, ip, 4.5 mg/kg
[3] = test system: chronic constriction injury model of peripheral neuropathic pain; experiment: Chronic Constriction Injury model (CCI model), treatment day 10 to 21 postoperatively (Example 1); assay type: in vivo; settings: rats
Description: as §1, §2

[4] = test system: rats that had not sustained damage; experiment: Single dose in rats that had not sustained damage (Example 3); assay type: in vivo; settings: undamaged rats, single i.p. dose of 9 mg/kg, up to 6 hours after application
Protocol: For qualification of the series' of experiments mentioned above, a single dose of 9 mg/kg body weight tarenflurbil (RF9) or vehicle (vehicle) was applied intraperitoneally in another series of experiments on rats that had not sustained damage and the mechanical allodynia and the heat sensitivity were measured for up to 6 hours after the application using Frey's aesthesiometer and the Hargreaves model, respectively. […] This means that the effects measured for tarenflurbil in Examples 1 and 2 are exclusively related to the effect in pain-associated neuropathies.

[5] = rats; cited from earlier work
[6] = humans; cited from earlier work
[7] = test system: spared nerve injury model of peripheral neuropathic pain; experiment: SNI model, treatment from the first postoperative day for two weeks (Example 2); assay type: in vivo, rats
Protocol: In another series of experiments, animals having sustained nerve damage according to the SNI model were treated twice daily with intraperitoneal doses of 9 mg/kg body weight tarenflurbil or vehicle from the first postoperative day and for a period of two weeks. Both the mechanical dynamic allodynia (on the ipsilateral and on the contralateral side) and the cold allodynia (ipsilateral only) were measured by means of Frey's aesthesiometer and the cold plate at 10° C., respectively.

[8] = SNI model, rats, 4.5 mg/kg twice daily i.p.
[9] = summary statement for the pharmacological models

| SMILES | effect on allodynia compared with tarenflurbil ([1]; SNI model, rats, 25 mg/kg twice daily i.p., positive control) | gastrointestinal bleeding [2] | reduction of allodynia [1, 8] | effect in models of pain-associated neuropathies [1, 9] | reduction of allodynia ([3]; 9 mg/kg twice daily i.p.) | mechanical allodynia vs vehicle ([4]; Frey's aesthesiometer) | heat sensitivity vs vehicle ([4]; Hargreaves model) | inversion of tarenflurbil to S-flurbiprofen [5] | inversion of the R-form to the S-form under in vivo conditions [6] | reduction of allodynia ([1]; SNI model, rats, 9 mg/kg twice daily i.p.) | efficacy relative to reference substance gabapentin ([1]; if dosed sufficiently, vs 25 mg/kg body weight gabapentin) | effect in models of pain-associated neuropathies (dose dependence) [1, 9] | mechanical allodynia, contralateral side, vs vehicle ([7]; 9 mg/kg twice daily i.p. from first postoperative day for two weeks) | mechanical allodynia, ipsilateral side, vs vehicle ([7]; 9 mg/kg twice daily i.p. from first postoperative day, entire treatment period of two weeks, Frey's aesthesiometer) | cold allodynia, ipsilateral side, vs vehicle ([7]; 9 mg/kg twice daily i.p. from first postoperative day, entire treatment period of two weeks, cold plate at 10° C.) | time until pain-relieving effect falls to pain intensity of the vehicle group ([7]; after completion of two weeks of 9 mg/kg twice daily i.p.) | reduction of allodynia ([3]; 4.5 mg/kg twice daily i.p.) |
| --- | --- | --- | --- | --- | --- | --- | --- | --- | --- | --- | --- | --- | --- | --- | --- | --- | --- |
| NCC1(CC(=O)O)CCCCC1 [Gabapentin, gabapentin, reference compound] | no significant difference from tarenflurbil | – | – | – | – | – | – | – | – | – | – | – | – | – | – | – | – |
| C[C@H](C(=O)O)c1ccc(-c2ccccc2)c(F)c1 [S-flurbiprofen, reference compound] | – | gastrointestinal bleeding in some animals | no significant effect | does not show a significant effect | no significant effect | – | – | – | – | – | – | – | – | – | – | – | – |
| C[C@@H](C(=O)O)c1ccc(-c2ccccc2)c(F)c1 [tarenflurbil] | – | – | significant reduction | – | significant reduction | no significant differences | no significant differences | basically do not invert | no or no more than extremely minor inversion | significant reduction | in the range of the efficacy of 25 mg/kg body weight gabapentin | dose-dependent effect | no difference | significantly different effect from vehicle | significantly different effect from vehicle | eight days after the end of treatment | significant reduction |
